In US7829304B2, “Compounds and related methods for mutant p53 reactivation” (Northwestern University, priority 2003, dated 2010):
Entries after “also recorded” stand apart in the source; their conditions may differ.

What was measured:
[1] = tested on: Saos2 cell lines expressing mutant p53 (Saos2-175, Saos2-281); assay: Cellular growth studies on Saos-2 cells expressing mutant p53; assay type: cell-based, human; conditions: for selective growth arrest/killing of cells expressing mutant p53 (in words): Saos-2 cells with mutant p53 versus p53-null cells
Procedure: (§1) Cellular growth studies were performed on Saos-2 cells, derived from a human osteosarcoma cancer cell line, according to the method described in Example 44. The cells had either no p53 (null) or mutant (mt) p53 at residues 175 and/or 281 (R175H and […], respectively). Selective arrest of mutant cells indicates good anticancer activity.
Cellular growth studies were performed on Saos2 cells. Human osteosarcoma Saos2 cells are devoid of endogenous p53 due to biallelic deletion of the p53 gene. Previously, a series of Saos2 cell lines were engineered to express several human p53 mutants that are commonly found in human cancers. The derivative Saos2 cell lines used in the present study included the following: 1) Saos2-CMV, which is the vector-only control cell line that is negative for p53 protein. 2) Saos2-175, which expresses the human mutant p53-R175H protein. The 175H substitution disrupts the structure of the protein resulting in the loss of DNA binding and tumor suppressor function. This mutation is found in ˜6% of all cancers of diverse tumor types. 3) Saos2-273, which expressed the human mutant p53-R273H protein. The 273H substitution eliminates a DNA contact point resulting in the loss of DNA binding and tumor suppressor function. This mutation represents the second most common hot spot mutation and is found in nearly 8% of all cancers. 4) Saos2-281, which expresses the human mutant p53-D281G protein. This mutation disrupts a stabilizing salt bridge resulting in the loss of DNA binding and tumor suppressor function.
The cells were grown at 37° C. in Dulbecco's modified Eagle's medium (Cambrex, East Rutherford, N.J.) supplemented with 10% fetal bovine serum (Hyclone, Logan, Utah) under 5% CO2. The cells were plated at 1×10^6 per 10 cm tissue culture plates and treated with escalating doses of the indicated compounds (Table 1) for varying lengths of time. Routine concentrations of the synthesized compounds ranged from 1-75 μM. After 72-96 hours, the cells were refed with fresh medium containing the appropriate concentration of the compound. In addition, parallel cultures were prepared and maintained under identical conditions without drug treatment as negative controls. The cells were microscopically analyzed during the course of treatment and the overall effectiveness of the drug treatment on cell growth and survival was assessed on day 7 by staining the cells with Giemsa Stain GS500 (SIGMA, St. Louis, Mo.). Prima-1 was included in all experiments for comparison purposes. […] The few Saos2 mutant p53 cells remaining after treatment with compound 7 were quite large and flat, reminiscent of a differentiated cell.

[2] = tested on: Saos2-CMV cells (p53-null, vector-only control); assay: Cellular growth studies on p53-null Saos2 control cells; assay type: cell-based, human
Procedure: as §1
Cellular growth studies were performed on Saos2 cells. Human osteosarcoma Saos2 cells are devoid of endogenous p53 due to biallelic deletion of the p53 gene. Previously, a series of Saos2 cell lines were engineered to express several human p53 mutants that are commonly found in human cancers. The derivative Saos2 cell lines used in the present study included the following: 1) Saos2-CMV, which is the vector-only control cell line that is negative for p53 protein. 2) Saos2-175, which expresses the human mutant p53-R175H protein. […]
The cells were grown at 37° C. in Dulbecco's modified Eagle's medium (Cambrex, East Rutherford, N.J.) supplemented with 10% fetal bovine serum (Hyclone, Logan, Utah) under 5% CO2. […] The cells were microscopically analyzed during the course of treatment and the overall effectiveness of the drug treatment on cell growth and survival was assessed on day 7 by staining the cells with Giemsa Stain GS500 (SIGMA, St. Louis, Mo.). […]

Structure (SMILES) | selective growth arrest/killing of cells expressing mutant p53 (in words) [1] | other results
CC(=O)OCC(N)C(=O)c1ccccc1.Cl (racemic) [Compound 7, 3-Acetoxy-1-oxo-1-phenylpropan-2-aminium chloride] | activity at lower concentrations, as compared to PRIMA-1; also recorded: efficiently and selectively inhibited the growth of the Saos2 cell lines expressing mutant p53; also recorded: particularly effective at selectively killing cells expressing R175H and R281G p53 mutants at lower concentrations than PRIMA-1 | effect on growth of CMV-only cells which lack p53 protein ([2]; Saos2-CMV, assessed on day 7 by Giemsa stain): no effect
CC(=O)OCC(C)(N)C(=O)c1ccccc1.Cl (stereo not shown) [Compound 17, 2-Amino-2-methyl-3-oxo-3-phenylpropyl acetate hydrochloride] | eliminates the desired activity | 
COC(=O)C(N)COC(C)=O.Cl (stereo not shown) [Compound 14, 3-Acetoxy-1-methoxy-1-oxopropan-2-aminium chloride] | the desired activity is lost | 
CNC(COC(C)=O)C(=O)c1ccccc1.Cl (stereo not shown) [Compound 16, 2-(Methylamino)-3-oxo-3-phenylpropyl acetate hydrochloride] |  | selective growth arrest/killing of cells expressing mutant p53 (in words) ([1]; acetate hydrochloride): the desired activity is lost; also recorded: eliminates the desired activity
CC(=O)OC[C@@H](N)C(=O)c1ccccc1.Cl [Compound 8, (R)-3-Acetoxy-1-oxo-1-phenylpropan-2-aminium chloride] | improved activity over (±)-7 | 
O=C1C2CCN(CC2)C1(CO)CO [PRIMA-1, reference compound] |  | toxic to p53-null cells at concentration ([2]; p53-null Saos-2 cells): 75 µM
CC(=O)OCC(N)C(=O)N1CCOCC1.Cl (stereo not shown) [Compound 15, 3-Acetoxy-1-morpholino-1-oxopropan-2-aminium chloride] | the desired activity is lost | 
CC(=O)OCC(N)(COC(C)=O)C(=O)c1ccccc1.Cl [Compound 4, 3-Acetoxy-2-(acetoxymethyl)-1-oxo-1-phenylpropan-2-aminium chloride] | activity at lower concentrations, as compared to PRIMA-1; also recorded: showed selectivity for R281G mutants | minimal effective concentration ([1]; Homo sapiens, 168 h, Mutant: 281, Saos-2 cells, concentration at which active, doses 1-75 μM, cell growth and survival assessed on day 7 by Giemsa stain): 10 µM
